Drawing on patent US7425557B2, “Inhibitors of glycogen synthase kinase 3” (Novartis Vaccines and Diagnostics, Inc., priority 1998, dated 2008), this text covers IC50 for 42 molecules.

Sequence of human GSK3β (P49841 whole entry): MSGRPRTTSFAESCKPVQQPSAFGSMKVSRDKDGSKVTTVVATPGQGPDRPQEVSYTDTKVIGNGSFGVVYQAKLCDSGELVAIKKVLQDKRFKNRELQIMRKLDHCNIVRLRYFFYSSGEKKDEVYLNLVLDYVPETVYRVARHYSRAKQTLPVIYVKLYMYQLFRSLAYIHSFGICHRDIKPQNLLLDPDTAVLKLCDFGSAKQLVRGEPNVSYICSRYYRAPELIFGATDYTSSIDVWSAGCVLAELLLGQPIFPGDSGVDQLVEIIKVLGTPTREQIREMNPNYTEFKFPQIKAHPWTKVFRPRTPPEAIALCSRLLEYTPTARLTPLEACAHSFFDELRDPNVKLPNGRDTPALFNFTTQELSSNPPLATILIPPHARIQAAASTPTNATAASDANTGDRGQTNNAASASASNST

The target of the assay is human GSK3β (Homo sapiens, UniProt P49841). The assay is described as follows: Screening for GSK3 inhibitory activity using a cell-free assay. In kind it is biochemical. As to conditions: read-out: IC50 with respect to GSK3. As to the method:
This amount represents the amount of radiolabeled phosphate incorporated into the peptide substrate.
The captured radiolabeled peptide substrate can be quantitated in a scintillation counter using known methods. […] If an inhibitor is present during the reaction, GSK3 activity will be reduced, and a smaller quantity of radiolabeled phosphate will thus be incorporated into the peptide substrate.
Pyrimidine and pyridine compounds of the present invention were dissolved in DMSO, then tested for inhibition of human GSK3β (the nucleotide sequence for human GSK3β appears in GenBank under Accession No. L33801).
While the reaction was proceeding, streptavidin-coated Labsystems “Combiplate 8” capture plates (Labsystems, Helsinki, Finland) were blocked by incubating them with 300 μl/well of PBS containing 1% bovine serum albumin for at least one hour at room temperature. The blocking solution was then removed by aspiration, and the capture plates were filled with 100 ul/well of stopping reagent (50 μM ATP/20 mM EDTA).
When the three hour enzyme reaction was finished, triplicate 100 μl aliquots of each reaction mix were transferred to three wells containing stopping solution, one well on each of the three capture plates, and the well contents were mixed well. […] Finally, 200 μl of Microscint-20 scintillation fluid was added to each well of the plate. The plates were coated with plate sealers, then left on a shaker for 30 minutes. Each capture plate was counted in a Packard TopCount scintillation counter (Meridian, Conn.) and the results were plotted as a function of compound concentration.
As to `O=c1ccccn1-c1cnc(NCCNc2ccc([N+](=O)[O-])cn2)nc1-c1ccc(Cl)cc1Cl`, the IC50 (commonly the concentration that gives 50% inhibition) is at most 1000 nM.

Regarding `N#Cc1ccc(-c2nc(NCCNc3ccc([N+](=O)[O-])cn3)ncc2C(=O)OCCN(CCO)CCO)cc1`, the IC50 is at most 1000 nM.

Consider `CN(C)CCOC(=O)c1cnc(NCCNc2ccc([N+](=O)[O-])c(N)n2)nc1-c1ccc(C#N)cc1`, for which the IC50 was at most 1000 nM.

For `CN(C)CCOC(=O)c1cnc(NCCNc2ccc([N+](=O)[O-])cn2)nc1-c1ccc(C#N)cc1`, the IC50 was at most 1000 nM.

With `NC(=O)c1ccc(-c2ccnc(NCCc3ccc4c(c3)OCO4)n2)cc1`, the IC50 was at most 10000 nM.

On to `NC(=O)c1ccc(-c2ccnc(NCCc3cccc(Cl)c3)n2)cc1`, for which the IC50 was at most 10000 nM.

Consider `NC(=O)c1ccc(-c2ccnc(NCCNc3nc4ccccc4s3)n2)cc1`, for which the IC50 was at most 10000 nM.

Turning to `CN(C)CCCCOC(=O)c1cnc(NCCNc2ccc([N+](=O)[O-])cn2)nc1-c1ccc(C#N)cc1`, the IC50 is at most 1000 nM.

As for `Nc1nc(NCCNc2ncc(N3C(=O)c4cccnc4C3=O)c(-c3ccc(Cl)cc3Cl)n2)ccc1[N+](=O)[O-]`, the IC50 was at most 1000 nM.

With `N#Cc1ccc(NCCNc2ncc(-n3cc(Cl)ccc3=O)c(-c3ccc(Cl)cc3Cl)n2)nc1`, the IC50 is at most 1000 nM.

As for `Nc1nc(NCCNc2ncc(C(=O)O)c(-c3ccc([N+](=O)[O-])cc3)n2)ccc1[N+](=O)[O-]`, the IC50 was at most 1000 nM.

For `Cc1cn(-c2cnc(NCCNc3ccc([N+](=O)[O-])c(N)n3)nc2-c2ccc(Cl)cc2Cl)c(C)n1`, the IC50 is at most 1000 nM.

Take `Cc1nccn1-c1cnc(NCCNc2ccc([N+](=O)[O-])c(N)n2)nc1-c1ccc(Cl)cc1Cl`: the IC50 is at most 1000 nM.

As to `O=[N+]([O-])c1ccc(NCCNc2ncc(-n3cccn3)c(-c3ccc(Cl)cc3Cl)n2)nc1`, the IC50 is at most 1000 nM.

On to `CCc1cnc(NCCNc2ccccn2)nc1-c1ccccc1`, for which the IC50 is at most 10000 nM.

Turning to `O=[N+]([O-])c1ccc(NCCNc2nccc(NCc3ccc(Cl)cc3Cl)n2)nc1`, the IC50 was at most 10000 nM.

In the case of `CCOC(=O)c1cnc(NCCNc2ccc([N+](=O)[O-])cn2)nc1-c1ccc(OC(F)(F)F)cc1`, the IC50 is at most 1000 nM.

For `CCOC(=O)c1cnc(NCCNc2ccc([N+](=O)[O-])cn2)nc1-c1ccc([N+](=O)[O-])cc1`, the IC50 was at most 1000 nM.

`CCOC(=O)c1cnc(NCCNc2ccc([N+](=O)[O-])cn2)nc1-c1ccc2c(c1)OCO2`: the IC50 is at most 1000 nM.

Take `CCOC(=O)c1c(-c2ccncc2)nc(NCCNc2ccc([N+](=O)[O-])cn2)nc1-c1ccc(C(N)=O)cc1`: the IC50 is at most 1000 nM.

In the case of `CCOC(=O)c1cnc(NCCNc2ccc([N+](=O)[O-])c(NCc3ccccc3)n2)nc1-c1ccc(C#N)cc1`, the IC50 is at most 10000 nM.

Turning to `CN1CC(=O)N(c2cnc(NCCNc3ccc([N+](=O)[O-])c(N)n3)nc2-c2ccc(Cl)cc2Cl)C(=O)C1` [1-[2-({2-[(6-amino-5-nitro(2-pyridyl))amino]ethyl}-amino)-4-(2,4-dichlorophenyl)pyrimidin-5-yl]-4-methylpiperazine-2,6-dione], the IC50 was at most 1000 nM.

Regarding `CN(C)C1CC(=O)N(c2cnc(NCCNc3ccc([N+](=O)[O-])c(N)n3)nc2-c2ccc(Cl)cc2Cl)C1=O` (stereo not drawn) [1-[2-({2-[(6-amino-5-nitro(2-pyridyl))amino]ethyl}amino)-4-(2,4-dichlorophenyl)pyrimidin-5-yl]-3-(dimethylamino)pyrrolidine-2,5-dione], the IC50 is at most 1000 nM.

As to `Nc1nc(NCCNc2ncc(N3C(=O)CC(N4CCOCC4)C3=O)c(-c3ccc(Cl)cc3Cl)n2)ccc1[N+](=O)[O-]` (stereo not drawn) [1-[2-({2-[(6-amino-5-nitro(2-pyridyl))amino]ethyl}amino)-4-(2,4-dichlorophenyl)pyrimidin-5-yl]-3-morpholin-4-ylpyrrolidine-2,5-dione], the IC50 was at most 1000 nM.

For `Nc1nc(NCCNc2ncc(N3C(=O)CCC3=O)c(-c3ccc(Cl)cc3Cl)n2)ccc1[N+](=O)[O-]` [1-[2-({2-[(6-amino-5-nitro(2-pyridyl))amino]ethyl}amino)-4-(2,4-dichlorophenyl)pyrimidin-5-yl]-pyrrolidine-2,5-dione], the IC50 is at most 1000 nM.

Take `CN1CC(=O)N(c2cnc(NCCNc3ccc([N+](=O)[O-])cn3)nc2-c2ccc(Cl)cc2Cl)C(=O)C1` [1-[4-(2,4-dichlorophenyl)-2-({2-[(5-nitro(2-pyridyl))amino]ethyl}amino)pyrimidin-5-yl]-4-methylpiperazine-2,6-dione]: the IC50 was at most 1000 nM.

Consider `CN1CCN(c2ccc(NCCNc3ccc([N+](=O)[O-])c(N)n3)nc2-c2cccnc2)C(=O)C1` [1-{6-[2-(6-Amino-5-nitropyridin-2-ylamino)-ethylamino]-[2,3′]bipyridinyl-3-yl}-4-methyl-piperazin-2-one], for which the IC50 is at most 10000 nM.

For the molecule `CN(C)CCOC(=O)c1cnc(NCCNc2ccc([N+](=O)[O-])c(N)n2)nc1-c1ccc(Cl)cc1Cl` [2-(dimethylamino)ethyl 2-({2-[(6-amino-5-nitro(2-pyridyl))amino]ethyl}amino)-4-(2,4-dichlorophenyl)pyrimidine-5-carboxylate], the IC50 was at most 1000 nM.

On to `O=C(O)c1c(-c2ccccc2)nc(NCCNc2ccc([N+](=O)[O-])cn2)nc1-c1ccc([N+](=O)[O-])cc1` [2-({2-[(5-nitro(2-pyridyl))amino]ethyl}-amino)-6-(4-nitrophenyl)-4-phenylpyrimidine-5-carboxylic acid], for which the IC50 is at most 10000 nM.

Turning to `O=C(O)c1c(-c2ccc([N+](=O)[O-])cc2)nc(NCCNc2ccc([N+](=O)[O-])cn2)nc1-c1cccc([N+](=O)[O-])c1` [2-({2-[(5-nitro(2-pyridyl))amino]ethyl}amino)-4-(3-nitrophenyl)-6-(4-nitrophenyl)pyrimidine-5-carboxylic acid], the IC50 was at most 10000 nM.

As to `N#Cc1cnc(NCCNc2ccc([N+](=O)[O-])cn2)nc1-c1ccccc1` [2-({2-[(5-nitro(2-pyridyl))amino]ethyl}amino)-4-phenylpyrimidine-5-carbonitrile], the IC50 was at most 1000 nM.

For the molecule `O=C(O)c1c(-c2ccncc2)nc(NCCNc2ccc([N+](=O)[O-])cn2)nc1-c1ccc([N+](=O)[O-])cc1` [2-({2-[(5-nitro(2-pyridyl))amino]ethyl}amino)-6-(4-nitrophenyl)-4-(4-pyridyl)pyrimidine-5-carboxylic acid], the IC50 is at most 10000 nM.

For `O=C(O)c1c(-c2ccc([N+](=O)[O-])cc2)nc(NCCNc2ccc([N+](=O)[O-])cn2)nc1-c1ccnc2ccccc12` [2-({2-[(5-nitro(2-pyridyl))amino]ethyl}amino)-6-(4-nitrophenyl)-4-(4-quinolyl)pyrimidine-5-carboxylic acid], the IC50 was at most 10000 nM.

Regarding `O=C(O)c1c(-c2ccc([N+](=O)[O-])cc2)nc(NCCNc2ccc([N+](=O)[O-])cn2)nc1-c1ccc(C(F)(F)F)cc1` [2-({2-[(5-nitro(2-pyridyl))amino]ethyl}amino)-6-(4-nitrophenyl)-4-[4-(trifluoromethyl)phenyl]pyrimidine-5-carboxylic acid], the IC50 was at most 10000 nM.

As for `N#Cc1cnc(NCCNc2ccc([N+](=O)[O-])c(N)n2)nc1-c1ccc(Cl)cc1Cl` [2-({2-[(6-amino-5-nitro(2-pyridyl))amino]ethyl}amino)-4-(2,4-dichlorophenyl)pyrimidine-5-carbonitrile], the IC50 was at most 1000 nM.

With `Nc1nc(NCCNc2ncc(C(=O)O)c(-c3ccc(Cl)cc3Cl)n2)ccc1[N+](=O)[O-]` [2-({2-[(6-amino-5-nitro(2-pyridyl))amino]ethyl}amino)-4-(2,4-dichlorophenyl)pyrimidine-5-carboxylic acid], the IC50 was at most 1000 nM.

On to `N#Cc1cnc(NCCNc2ccc([N+](=O)[O-])c(N)n2)nc1-c1ccc(Cl)c(Cl)c1` [2-({2-[(6-amino-5-nitro(2-pyridyl))amino]ethyl}amino)-4-(3,4-dichlorophenyl)pyrimidine-5-carbonitrile], for which the IC50 was at most 10000 nM.

With `Nc1nc(NCCNc2ncc(N3C(=O)c4ccccc4C3=O)c(-c3ccc(Cl)cc3Cl)n2)ccc1[N+](=O)[O-]` [2-[2-({2-[(6-amino-5-nitro(2-pyridyl))amino]ethyl}amino)-4-(2,4-dichlorophenyl)pyrimidin-5-yl]isoindoline-1,3-dione], the IC50 was at most 1000 nM.

With `N#Cc1ccc(-c2nc(NCCNc3ccc([N+](=O)[O-])cn3)ncc2C(=O)OCC(O)CN2CCOCC2)cc1` (stereo not drawn) [2-hydroxy-3-morpholin-4-yl-propyl 4-(4-cyanophenyl)-2-({2-[(5-nitro(2-pyridyl))amino]ethyl}amino)pyrimidine-5-carboxylate], the IC50 was at most 1000 nM.

Take `N#Cc1ccc(-c2nc(NCCNc3ccc([N+](=O)[O-])cn3)ncc2C(=O)OCCO)cc1` [2-hydroxyethyl 4-(4-cyanophenyl)-2-({2-[(5-nitro(2-pyridyl))-amino]ethyl}amino)pyrimidine-5-carboxylate]: the IC50 was at most 1000 nM.

Turning to `N#Cc1ccc(-c2nc(NCCNc3ccc([N+](=O)[O-])cn3)ncc2C(=O)OCCN2CCOCC2)cc1` [2-morpholin-4-ylethyl 4-(4-cyanophenyl)-2-({2-[(5-nitro(2-pyridyl))amino]ethyl}-amino)pyrimidine-5-carboxylate], the IC50 is at most 1000 nM.

Consider `CN(C)CCCOC(=O)c1cnc(NCCNc2ccc([N+](=O)[O-])cn2)nc1-c1ccc(C#N)cc1` [3-(dimethylamino)propyl 4-(4-cyanophenyl)-2-({2-[(5-nitro(2-pyridyl))amino]ethyl}amino)pyrimidine-5-carboxylate], for which the half-inhibitory concentration (IC50) is at most 1000 nM.
